# In patent publication US8574831B2, “Mutational profiles in HIV-1 reverse transcriptase correlated with phenotypic drug resistance” (Virco N.V., priority 2000, dated 2013):
# Test system: HIV with mutations in the HIV protease sequence
# Assay: Phenotypic fold resistance to protease inhibitors, protease mutations 84A/84L/84C/54M/54L/54V in a background (Examples 8-13)
# Assay type: cell-based, HIV-1
# Procedure: As is the case with the genotyping assays, the recombinant virus assay starts with the amplification of viral target sequences by means of PCR. The amplicons are incorporated into a proviral laboratory clone with sequences homologous to those present in the amplicon deleted. This generates a stock of chimeric viruses. The viruses are tested for their ability to grow in the presence of different concentrations of drugs. Results are obtained by calculating IC50 values for each inhibitor and by reporting the results as IC50 values, expressed in μM concentrations, or by computing the ratio of the IC50 values found for the chimeric virus to the IC50 values found for a wild type susceptible laboratory virus tested in parallel. In the latter case, resistance is expressed as “fold-resistance” compared to a wild-type susceptible HIV-1 strain. In order to meet the need for high-volume testing and a short turn-around time for an individual test, the latest generation of phenotyping assays has undergone further modifications. The use of reporter gene systems for susceptibility testing allows the implementation of laboratory automation and standardization. See Pauwels, et al., J. Virol. Methods 20, 309-321 (1998); Paulous, S., et al., International Workshop on HIV Drug Resistance, Treatment Strategies and Eradication, St. Petersburg, Fla., USA. Abstr. 46 (1997); and Deeks, S. G., et al., 2nd International Workshop on HIV Drug Resistance and Treatment Strategies, Lake Maggiore, Italy. Abstr. 53 (1998).
# The ANTIVIROGRAM® assay (Virco) (WO 97/27480) is based on homologous recombination of patient derived HIV-1 gag/PR/RT sequences into a proviral HIV-1 clone correspondingly deleted for the gag/PR/RT sequences. See Pauwels, et al., J. Virol. Methods 20, 309-321 (1998). A similar assay (Phenosense ViroLogic) is based on enzymatic ligation of patient-derived PR/RT sequences into a correspondingly deleted proviral vector carrying an indicator gene, luciferase, inserted in the deleted HIV-1 envelope gene. See Deeks, S. G., et al., 2nd International Workshop on HIV Drug Resistance and Treatment Strategies, Lake Maggiore, Italy. Abstr. 53 (1998). Hertogs et al. Antimicrob. Agents Chemother. 44(3) 568-573 (2000) the disclosures of which are herein incorporated by reference.
# The methods of monitoring HIV-1 drug resistance, may also be used in combination with phenotypic drug resistance testing of viral isolates. For example, in one embodiment, a phenotypic test is utilized that is based upon the construction of chimeric HIV-1 strains composed of the protease (PR) and reverse transcriptase (RT) gene sequences which are isolated and amplified from the patient viral RNA. These strains may subsequently be recombined inside CD4+ T cells with a standard laboratory isogenic (HXB2) HIV-1 DNA construct from which the PR/RT gene sequences were deleted. The recombinant strains may then be grown in the presence of the above-mentioned antiviral drugs and the susceptibility of the viral isolates may be expressed as fold-change value of the IC50 of the drug on the patient isolates over the IC50 of the drug on a wild-type laboratory reference strain.
structure (smiles),measurement,setting,value
"Cc1c(O)cccc1C(=O)N[C@@H](CSc1ccccc1)[C@H](O)CN1C[C@H]2CCCC[C@H]2C[C@H]1C(=O)NC(C)(C)C [Nelfinavir, nelfinavir]",Fold change in IC50,"Table 12, V055199, genotype 10I + 33F + 54M + 90M",11.7 fold
same,Fold change in IC50,"Table 13, V19263, genotype 77I",0.9 fold
same,Fold change in IC50,"Table 13, V20160, genotype WT",0.7 fold
same,Fold change in IC50,"Table 13, V021667, genotype 10I",1.0 fold
same,Fold change in IC50,"Table 13, V030496, genotype 10I + 77I",0.7 fold
same,Fold change in IC50,"Table 13, V048868, genotype 10I + 54L + 71V + 77I + 90M",15.6 fold
same,Fold change in IC50,"Table 13, V048874, genotype 10I + 33F + 54L + 71V + 77I + 90M",14.5 fold
same,Fold change in IC50,"Table 13, V048875, genotype 10I + 33F + 54L + 71V + 77I + 90M",12.5 fold
same,Fold change in IC50,"Table 13, V048877, genotype 10I + 33F + 77I + 90M",9.4 fold
same,Fold change in IC50,"Table 13, V048880, genotype 10I + 33F + 77I + 90M",4.9 fold
same,Fold change in IC50,"Table 13, V052940, genotype 71V",0.6 fold
same,Fold change in IC50,"Table 13, V052942, genotype 10I + 71V",0.9 fold
same,Fold change in IC50,"Table 13, V052943, genotype 10I + 90M",2.2 fold
same,Fold change in IC50,"Table 13, V052944, genotype 10I + 90M",1.4 fold
same,Fold change in IC50,"Table 13, V052945, genotype 77I + 90M",3.0 fold
same,Fold change in IC50,"Table 13, V052946, genotype 71V + 90M",3.0 fold
same,Fold change in IC50,"Table 13, V052947, genotype 10I + 77I + 90M",8.2 fold
same,Fold change in IC50,"Table 13, V052948, genotype 10I + 71V + 90M",9.0 fold
same,Fold change in IC50,"Table 13, V052949, genotype 10I + 71V + 77I + 90M",8.6 fold
same,Fold change in IC50,"Table 13, V052950, genotype 33F",1.0 fold
same,Fold change in IC50,"Table 13, V052951, genotype 33F + 77I",5.2 fold
same,Fold change in IC50,"Table 13, V052953, genotype 10I + 33F + 77I",0.9 fold
same,Fold change in IC50,"Table 13, V052954, genotype 33F + 77I + 90M",5.9 fold
same,Fold change in IC50,"Table 13, V052955, genotype 33F + 71V + 90M",36.6 fold
same,Fold change in IC50,"Table 13, V052968, genotype 10L/I + 33F/L + 54L + 77I",3.5 fold
same,Fold change in IC50,"Table 13, V052969, genotype 10I + 33F + 54L + 90M",3.4 fold
same,Fold change in IC50,"Table 13, V052970, genotype 54L",1.6 fold
same,Fold change in IC50,"Table 13, V052971, genotype 10I + 54L",1.0 fold
same,Fold change in IC50,"Table 13, V052972, genotype 54L + 77I",3.0 fold
same,Fold change in IC50,"Table 13, V052973, genotype 10I + 54L + 77I",2.8 fold
same,Fold change in IC50,"Table 13, V052974, genotype 10I + 54L + 90M",2.6 fold
same,Fold change in IC50,"Table 13, V052975, genotype 10I + 54L + 71V + 90M",41.3 fold
same,Fold change in IC50,"Table 13, V052976, genotype 10I + 54L + 71V + 77I + 90M",8.9 fold
same,Fold change in IC50,"Table 13, V053832, genotype 10I + 33F",1.6 fold
same,Fold change in IC50,"Table 13, V053854, genotype 54L + 71V",5.9 fold
same,Fold change in IC50,"Virco ID 214846, genotype 10I + 33F + 54V + 71V + 77I + 90M, vs mean IC50 of wild type laboratory HIV strain",43.5 fold
same,Fold change in IC50,"Virco ID V021667, genotype 10I, vs mean IC50 of wild type laboratory HIV strain",1.0 fold
same,Fold change in IC50,"Virco ID V030496, genotype 10I + 77I, vs mean IC50 of wild type laboratory HIV strain",0.7 fold
same,Fold change in IC50,"Virco ID V048876, genotype 33F + 54V + 77I + 90M, vs mean IC50 of wild type laboratory HIV strain",1.6 fold
same,Fold change in IC50,"Virco ID V048877, genotype 10I + 33F + 77I + 90M, vs mean IC50 of wild type laboratory HIV strain",9.4 fold
same,Fold change in IC50,"Virco ID V048880, genotype 10I + 33F + 77I + 90M, vs mean IC50 of wild type laboratory HIV strain",4.9 fold
same,Fold change in IC50,"Virco ID V052940, genotype 71V, vs mean IC50 of wild type laboratory HIV strain",0.6 fold
same,Fold change in IC50,"Virco ID V052942, genotype 10I + 71V, vs mean IC50 of wild type laboratory HIV strain",0.9 fold
same,Fold change in IC50,"Virco ID V052943, genotype 10I + 90M, vs mean IC50 of wild type laboratory HIV strain",2.2 fold
same,Fold change in IC50,"Virco ID V052944, genotype 10I + 90M, vs mean IC50 of wild type laboratory HIV strain",1.4 fold
same,Fold change in IC50,"Virco ID V052946, genotype 71V + 90M, vs mean IC50 of wild type laboratory HIV strain",3.0 fold
same,Fold change in IC50,"Virco ID V052947, genotype 10I + 77I + 90M, vs mean IC50 of wild type laboratory HIV strain",8.2 fold
same,Fold change in IC50,"Virco ID V052948, genotype 10I + 71V + 90M, vs mean IC50 of wild type laboratory HIV strain",9.0 fold
same,Fold change in IC50,"Virco ID V052949, genotype 10I + 71V + 77I + 90M, vs mean IC50 of wild type laboratory HIV strain",8.6 fold
same,Fold change in IC50,"Virco ID V052950, genotype 33F, vs mean IC50 of wild type laboratory HIV strain",1.0 fold
same,Fold change in IC50,"Virco ID V052951, genotype 33F + 77I, vs mean IC50 of wild type laboratory HIV strain",5.2 fold
same,Fold change in IC50,"Virco ID V052953, genotype 10I + 33F + 77I, vs mean IC50 of wild type laboratory HIV strain",0.9 fold
same,Fold change in IC50,"Virco ID V052954, genotype 33F + 77I + 90M, vs mean IC50 of wild type laboratory HIV strain",5.9 fold
same,Fold change in IC50,"Virco ID V052955, genotype 33F + 71V + 90M, vs mean IC50 of wild type laboratory HIV strain",36.6 fold
same,Fold change in IC50,"Virco ID V052957, genotype 10I + 33F + 54V + 90M, vs mean IC50 of wild type laboratory HIV strain",6.9 fold
same,Fold change in IC50,"Virco ID V052958, genotype 10I + 33F + 54V + 77I + 90M, vs mean IC50 of wild type laboratory HIV strain",4.8 fold
same,Fold change in IC50,"Virco ID V052959, genotype 10I + 33F + 54V + 77I + 90M, vs mean IC50 of wild type laboratory HIV strain",7.5 fold
same,Fold change in IC50,"Virco ID V052960, genotype 10I + 33F + 54V + 71V + 90M, vs mean IC50 of wild type laboratory HIV strain",40.7 fold
same,Fold change in IC50,"Virco ID V052961, genotype 54V, vs mean IC50 of wild type laboratory HIV strain",1.0 fold
same,Fold change in IC50,"Virco ID V052962, genotype 10I + 54V, vs mean IC50 of wild type laboratory HIV strain",0.6 fold
same,Fold change in IC50,"Virco ID V052963, genotype 54V + 77I + 90M, vs mean IC50 of wild type laboratory HIV strain",3.2 fold
same,Fold change in IC50,"Virco ID V052964, genotype 54V + 71V + 90M, vs mean IC50 of wild type laboratory HIV strain",3.3 fold
same,Fold change in IC50,"Virco ID V052965, genotype 10I + 54V + 77I + 90M, vs mean IC50 of wild type laboratory HIV strain",15.1 fold
same,Fold change in IC50,"Virco ID V052966, genotype 10I + 54V + 71V + 90M, vs mean IC50 of wild type laboratory HIV strain",55.4 fold
same,Fold change in IC50,"Virco ID V052967, genotype 10I + 54V + 71V + 77I + 90M, vs mean IC50 of wild type laboratory HIV strain",0.8 fold
same,Fold change in IC50,"Virco ID V053358, genotype 33F + 54V + 77I + 90M, vs mean IC50 of wild type laboratory HIV strain",2.1 fold
same,Fold change in IC50,"Virco ID V053831, genotype 33F + 54V, vs mean IC50 of wild type laboratory HIV strain",5.9 fold
same,Fold change in IC50,"Virco ID V053832, genotype 10I + 33F, vs mean IC50 of wild type laboratory HIV strain",1.6 fold
